# Results published in patent publication EP0450097B1, “BENZOHETEROCYCLIC COMPOUNDS” (OTSUKA PHARMACEUTICAL CO., LTD., priority 1989, dated 1991).
# Target: T1, V₂ receptor (Rattus norvegicus, UniProt Q00788)
# T1 construct: Using rat kidney plasma membrane preparations; from tissue; host or cells: rat kidney plasma membranes
# Experiment: V₂ receptor binding assay ([³H]-Arg-vasopressin, rat kidney plasma membrane preparations)
# Conditions: 4°C for 3 hours
# Method: Using rat kidney plasma membrane preparations prepared according to O. Hechter's method [cf: J. Bio. […] After incubation, the mixture is filtered using the glass filter (GF/F) so as to separate the membrane preparation combined with vasopressin and then washed twice with the buffer (5 ml). This glass filter is taken out and mixed with liquid scintillation cocktail. The amount of [³H]-vasopressin combined with the membrane is measured by liquid scintillation counter and the rate of the inhibitory effect of the test compound is estimated according to the following equation. Rate of the inhibitory effect (%) = 100 -(C1 - B1)/(C0 - B1)X 100 [formula] C¹: The amount of [³H]-vasopressin combined with the membrane in the presence of the test compound (in prescribed amount). C⁰: The amount of [³H)-vasopressin combined with the membrane in the absence of the test compound. B¹: The amount of [³H]-vasopressin combined with the membrane in the presence of the excess amount of vasopressin (10⁻⁶ M).
# The results are expressed as IC₅₀ values, which is the concentration of the test compound required to achieve the inhibitory effect in the rate of 50 %.
# T1 sequence (Q00788 whole entry): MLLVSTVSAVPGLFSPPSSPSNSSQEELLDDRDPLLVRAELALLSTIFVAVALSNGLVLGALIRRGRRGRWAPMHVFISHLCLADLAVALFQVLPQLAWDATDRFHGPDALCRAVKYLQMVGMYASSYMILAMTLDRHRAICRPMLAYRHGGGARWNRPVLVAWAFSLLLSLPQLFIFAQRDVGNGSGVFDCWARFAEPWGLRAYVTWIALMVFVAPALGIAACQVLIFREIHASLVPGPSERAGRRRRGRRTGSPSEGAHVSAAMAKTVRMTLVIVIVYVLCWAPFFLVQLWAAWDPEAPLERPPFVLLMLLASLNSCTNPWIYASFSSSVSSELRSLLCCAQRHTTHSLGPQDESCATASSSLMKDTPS
row,Structure (SMILES),IC50 [nM]
1,COc1cc(NC(=O)c2ccccc2Cl)ccc1C(=O)N1CCCC(N(C)C)c2ccccc21 (stereo not drawn) [compound 177],150
2,CNC1CCCN(C(=O)c2ccc(NC(=O)c3ccccc3Cl)cc2)c2ccccc21 (stereo not drawn) [compound 181],38
3,COc1cc(NC(=O)c2ccccc2C)ccc1C(=O)N1CCCC(N(C)C)c2ccccc21 (stereo not drawn) [compound 183],260
4,CN(C)C1CCCN(C(=O)c2ccc(NC(=O)c3ccccc3Cl)cc2Cl)c2ccccc21 (stereo not drawn) [compound 184],23
5,O=C(Nc1ccc(C(=O)N2CCCC(NC3CC3)c3ccccc32)c(Cl)c1)c1ccc(Cl)cc1Cl (stereo not drawn) [compound 186],30
6,Cc1ccccc1C(=O)Nc1ccc(C(=O)N2CCCC(OC(N)=O)c3ccccc32)cc1 (stereo not drawn) [compound 191],9
7,Cc1ccccc1C(=O)Nc1ccc(C(=O)N2CCCC(N(C)C)c3ccccc32)c(N(C)C)c1 (stereo not drawn) [compound 197],990
8,CNC1CCCN(C(=O)c2ccc(NC(=O)c3ccccc3C(F)(F)F)cc2Cl)c2ccccc21 (stereo not drawn) [compound 198],40
9,O=C(Nc1ccc(C(=O)N2CCCC(NC3CC3)c3ccccc32)c(Cl)c1)c1ccccc1Cl (stereo not drawn) [compound 200],24
10,C=CCNC1CCCN(C(=O)c2ccc(NC(=O)c3ccccc3C)cc2Cl)c2ccccc21 (stereo not drawn) [compound 201],23
11,O=C(Nc1ccc(C(=O)N2CCCC(N3CCCCC3)c3ccccc32)cc1)c1ccccc1Cl (stereo not drawn) [compound 202],140
12,O=C(Nc1ccc(C(=O)N2CCCC(N3CCN(Cc4ccccc4)CC3)c3ccccc32)cc1)c1ccccc1Cl (stereo not drawn) [compound 203],70
13,O=C(Nc1ccc(C(=O)N2CCCC(N3CCCC3)c3ccccc32)cc1)c1ccccc1Cl (stereo not drawn) [compound 204],110
14,CC(=O)N1CCN(C2CCCN(C(=O)c3ccc(NC(=O)c4ccccc4Cl)cc3)c3ccccc32)CC1 (stereo not drawn) [compound 205],74
15,CN(C)C1CCCN(C(=O)c2ccc(NC(=O)c3ccccc3F)cc2)c2ccccc21 (stereo not drawn) [compound 212],35
16,CN(C)C1CCCN(C(=O)c2ccc(NC(=O)c3ccc(F)cc3F)cc2)c2ccccc21 (stereo not drawn) [compound 213],33
17,Cc1ccccc1C(=O)Nc1ccc(C(=O)N2CCCC(N(C)C)c3ccccc32)c(C)c1 (stereo not drawn) [compound 218],22
18,Cc1cc(NC(=O)c2ccccc2Cl)ccc1C(=O)N1CCCC(N(C)C)c2ccccc21 (stereo not drawn) [compound 219],23
19,CCN(CC(=O)Nc1ccc(C(=O)N2CCCC(NC)c3ccccc32)c(Cl)c1)c1ccccc1 (stereo not drawn) [compound 221],24
20,CNC1c2ccccc2N(C(=O)c2ccc(NC(=O)c3ccccc3Cl)cc2Cl)CCC1O (stereo not drawn) [compound 224],380
21,Cc1ccccc1C(=O)Nc1ccc(C(=O)N2CCCC(O)(CO)c3ccccc32)c(Cl)c1 (stereo not drawn) [compound 225],30
22,CCN(C)C1CCCN(C(=O)c2ccc(NC(=O)c3ccccc3C)cc2)c2ccccc21 (stereo not drawn) [compound 228],29
23,CCNC1CCCN(C(=O)c2ccc(NC(=O)c3ccccc3C)cc2)c2ccccc21 (stereo not drawn) [compound 229],29

row,Structure (SMILES),IC50 [nM]
1,CN(C)C1CCCN(C(=O)c2ccc(NC(=O)c3cc(F)cc(F)c3)cc2)c2ccccc21 (stereo not drawn) [compound 230],20
2,Cc1ccccc1C(=O)Nc1ccc(C(=O)N2CCCC(N(C)C)c3ccccc32)cc1F (stereo not drawn) [compound 232],20
3,CC(=O)ON=C1CCCN(C(=O)c2ccc(NC(=O)c3ccccc3Cl)cc2)c2ccccc21 [compound 234],140
4,Cc1ccccc1C(=O)Nc1ccc(C(=O)N2CCCC(O)(CO)c3ccccc32)cc1 (stereo not drawn) [compound 237],41
5,CN(C)C1CCCN(C(=O)c2ccc(NC(=O)c3ccccc3OCC(N)=O)cc2)c2ccccc21 (stereo not drawn) [compound 239],170
6,COc1cc(C(=O)N2CCCC(N(C)C)c3ccccc32)ccc1NC(=O)c1ccc(Cl)cc1Cl (stereo not drawn) [compound 248],60
7,NC1CCCN(C(=O)c2ccc(NC(=O)c3ccccc3Cl)cc2)c2ccccc21 (stereo not drawn) [compound 253],52
8,Cc1ccccc1C(=O)Nc1ccc(C(=O)N2CCC(C)C(N(C)C)c3ccccc32)cc1 (stereo not drawn) [compound 254],16
9,CCOC(=O)NC1CCCN(C(=O)c2ccc(NC(=O)c3ccccc3C)cc2)c2ccccc21 (stereo not drawn) [compound 260],130
10,Cc1ccccc1C(=O)Nc1ccc(C(=O)N2CCCC(C)(O)c3ccccc32)cc1 (stereo not drawn) [compound 261],11
11,Cc1ccccc1C(=O)Nc1ccc(C(=O)N2CCCC(CN(C)C)c3ccccc32)cc1 (stereo not drawn) [compound 268],18
12,Cc1ccccc1C(=O)Nc1ccc(C(=O)N2CCCC(NN)c3ccccc32)cc1 (stereo not drawn) [compound 282],380
13,CNC(=O)NC1CCCN(C(=O)c2ccc(NC(=O)c3ccccc3C)cc2)c2ccccc21 (stereo not drawn) [compound 283],96
14,CN(C)C1CCCN(C(=O)c2ccc(NC(=O)c3cccc([N+](=O)[O-])c3)cc2)c2ccccc21 (stereo not drawn) [compound 289],71
15,CN(C)C1CCCN(C(=O)c2ccc(NC(=O)c3cccc(N)c3)cc2)c2ccccc21 (stereo not drawn) [compound 292],180
16,Cc1ccccc1C(=O)Nc1ccc(C(=O)N2CCCC(N(C)CC(=O)N(C)C)c3ccccc32)cc1 (stereo not drawn) [compound 295],26
17,Cc1ccccc1C(=O)Nc1ccc(C(=O)N2CCCC(NC(=O)CN)c3ccccc32)cc1 (stereo not drawn) [compound 299],220
18,Cc1ccccc1C(=O)Nc1ccc(C(=O)N2CCCC(NC(=O)CNC(=O)OC(C)(C)C)c3ccccc32)cc1 (stereo not drawn) [compound 301],140
19,CN(C)C1CCCN(C(=O)c2ccc(NC(=O)CCc3ccccc3)cc2)c2ccccc21 (stereo not drawn) [compound 306],77
20,CCN(C)C1CCCN(C(=O)c2ccc(NC(=O)c3ccccc3Cl)cc2Cl)c2ccccc21 (stereo not drawn) [compound 314],96
21,CNC1CCCN(C(=O)c2ccc(NC(=O)c3ccccc3C)cc2)c2c(Cl)cccc21 (stereo not drawn) [compound 318],60
22,CN(C)C1CCCN(C(=O)c2ccc(NC(=O)COc3ccccc3)cc2)c2ccccc21 (stereo not drawn) [compound 319],58

# Continued by falling IC50, values first:
row,IC50 [nM],Structure (SMILES)
1,910,CN(C)C1c2ccccc2N(C(=O)c2ccc(NC(=O)c3ccccc3Cl)cc2)CCC1O (stereo not drawn) [compound 216]
2,480,CC(=O)Nc1cccc(C(=O)Nc2ccc(C(=O)N3CCCC(N(C)C)c4ccccc43)cc2)c1 (stereo not drawn) [compound 300]
3,370,Cc1ccccc1C(=O)Nc1ccc(C(=O)N2CC=Cc3ccccc32)cc1 [compound 217]
4,330,CCN(CC)CCOc1cc(C(=O)N2CCCC(N(C)C)c3ccccc32)ccc1NC(=O)c1ccccc1C (stereo not drawn) [compound 294]
5,200,Cc1ccccc1C(=O)Nc1ccc(C(=O)N2CCCC(N(C)S(C)(=O)=O)c3ccccc32)cc1 (stereo not drawn) [compound 258]
6,150,COC1(OC)CCN(C(=O)c2ccc(NC(=O)c3ccccc3C)cc2)c2ccccc2C1 [compound 233]
7,130,CNCC(=O)NC1CCCN(C(=O)c2ccc(NC(=O)c3ccccc3C)cc2)c2ccccc21 (stereo not drawn) [compound 291]
8,120,Cc1ccccc1C(=O)Nc1ccc(C(=O)N2CCCC(N(C)CCCOC3CCCCO3)c3ccccc32)cc1 (stereo not drawn) [compound 267]
9,94,CN1CC(=O)OC2CCN(C(=O)c3ccc(NC(=O)c4ccccc4Cl)cc3)c3ccccc3C21 (stereo not drawn) [compound 251]
10,88,CN1CCN(C2CCCN(C(=O)c3ccc(NC(=O)c4ccccc4Cl)cc3)c3ccccc32)CC1 (stereo not drawn) [compound 206]
11,87,CN(C)C1CCCN(C(=O)c2ccc(NC(=O)c3ccccc3Cl)c(OC(=O)c3ccccc3Cl)c2)c2ccccc21 (stereo not drawn) [compound 189]
12,82,C=CCN(C)C1CCCN(C(=O)c2ccc(NC(=O)c3ccccc3C)cc2Cl)c2ccccc21 (stereo not drawn) [compound 190]
13,72,Cc1ccccc1N(C)CC(=O)Nc1ccc(C(=O)N2CCCC(N(C)C)c3ccccc32)cc1 (stereo not drawn) [compound 317]
14,53,Cc1ccccc1C(=O)Nc1ccc(C(=O)N2CCCC(NC3CCCC3)c3ccccc32)c(Cl)c1 (stereo not drawn) [compound 263]
15,51,Cc1ccccc1C(=O)Nc1ccc(C(=O)N2CCCC(N(C)C(=O)Cn3ccnc3)c3ccccc32)cc1 (stereo not drawn) [compound 297]
16,45,O=C(Nc1ccc(C(=O)N2CCCC(NCCc3ccccn3)c3ccccc32)cc1)c1ccccc1Cl (stereo not drawn) [compound 257]
17,38,CN(C)C1CCCN(C(=O)c2ccc(NC(=O)Cc3ccccc3)cc2)c2ccccc21 (stereo not drawn) [compound 305]
18,34,CN(C)C1CCCN(C(=O)c2ccc(NC(=O)c3ccccc3Cl)cc2)c2ccccc21 (stereo not drawn) [compound 180]
19,30,Cc1ccccc1C(=O)Nc1ccc(C(=O)N2CCCC(N(C)CC(O)CO)c3ccccc32)cc1 (stereo not drawn) [compound 264]
20,29,Cc1cc(C(=O)N2CCCC(N(C)C)c3ccccc32)ccc1NC(=O)c1ccc(Cl)cc1Cl (stereo not drawn) [compound 227]
21,29,CCOC(=O)CN(C)C1CCCN(C(=O)c2ccc(NC(=O)c3ccccc3C)cc2)c2ccccc21 (stereo not drawn) [compound 262]
22,26,Cc1cc(NC(=O)c2ccc(Cl)cc2Cl)ccc1C(=O)N1CCCC(N(C)C)c2ccccc21 (stereo not drawn) [compound 220]
23,25,Cc1ccccc1C(=O)Nc1ccc(C(=O)N2CCCC(N(C)CC#N)c3ccccc32)cc1 (stereo not drawn) [compound 265]
24,22,CN(C)C1CCCN(C(=O)c2ccc(NC(=O)c3ccccc3Cl)cc2F)c2ccccc21 (stereo not drawn) [compound 223]
25,19,Cc1ccccc1C(=O)Nc1ccc(C(=O)N2CCCC(N(C)C)c3ccccc32)c(F)c1 (stereo not drawn) [compound 226]
26,5,CNC1CCCN(C(=O)c2ccc(NC(=O)c3ccccc3C)cc2Cl)c2ccccc21 (stereo not drawn) [compound 182]
27,4,Cc1ccccc1C(=O)Nc1ccc(C(=O)N2CCCC(O)c3ccccc32)c(Cl)c1 (stereo not drawn) [compound 210]
